Assay results taken from patent US5185366A, “Method for treatment and prevention of diseases caused by enveloped viruses, including herpes simplex virus types 1 and 2 diseases, using 3,4-dihydroxy-2H-benzopyran-2H-one” (Ohio State University Research Foundation, priority 1990, dated 1993).
Where two headings read alike, the source gives them in different places.

Key:
[1] = test system: Poliovirus-2; assay: organism not typed; assay type: cell-based
[2] = test system: Buffalo green monkey kidney (BGM 70) cells; assay: [3H]-thymidine uptake cytotoxicity; assay type: cell-based; conditions: for inhibition at 0.4 µM / inhibition at 1.6 µM / inhibition at 2.5 µM / inhibition at 10 µM: Chlorocebus sabaeus, read-out: % Inhibition of [3H]-Thymidine Incorporated; for inhibition at 0.4 µM: 0.4 μmol/L; for inhibition at 1.6 µM: 1.6 μmol/L; for inhibition at 2.5 µM: 2.5 μmol/L; for inhibition at 10 µM: 10.0 μmol/L; for toxicity ([3H]-thymidine uptake and/or cell growth): at 10 μM
[3] = test system: HSV-2; assay: Intracellular activity, inhibition of plaque forming units, HSV-2; assay type: cell-based, Herpes simplex virus type 2; conditions: for intracellular antiviral activity: HSV-2, 10 μM; for Plaque Forming Units Mean ± SD: intracellular
[4] = Inhibition of cell growth (microscopic cell count); assay type: cell-based, Buffalo green monkey; conditions: monkey, bgm-70 cells, read-out: % Reduction of cell growth
Experimental: a MASHII cell harvester and placed in a scintillation counter to determin
incorporation of labelled compound and level of toxicity. BGM 70 cells ar
seeded at a concentration of […] per well in a 24well tissue cultur
plate. Cells are planted in 2 mL of growth medium with or without the tes
compound and are incubated at 37° C. for 38 hours. At 24 hours
medium is removed from onehalf of the plates and the cells are fixed and
stained with crystal violet. The remaining cultures are fixed and stained
^b BGM 70 cells are counted microscopically and comparisons are made.
Experiments are performed blindly by assigning each compound concentratio
a letter code. The code is broken after the cells are counted.
The effect of the compounds on the inhibition of cell growth is determined using BGM-70 cells grown in vitro. For this assay, BGM 70 cells are seeded at a concentration of approximately 70 cells per well in 24-well tissue culture plates. Cells are planted in 2 ml of growth medium with or without the test compound and are incubated at 37° C. for 48 hours. At 24 hours, cells from one half of the plates are fixed and stained with crystal violet. The remaining cultures are fixed and stained at 48 hours. Cells are counted microscopically and comparisons are made between non-treated (control) and treated cells.

[5] = test system: HSV-2; assay: Extracellular activity, inhibition of plaque forming units, HSV-2; conditions: for extracellular antiviral activity: HSV-2, 10 μM; for Plaque Forming Units Mean ± SD: extracellular
[6] = test system: HSV-2; assay: HSV-2 plaque size, extracellular treatment; assay type: cell-based, Herpes simplex virus type 2; conditions: for Mean plaque diameter (±SD), Treated: extracellularly; for reduction in plaque size: virus treated extracellularly
[7] = test system: HSV-1; assay: Intracellular activity, inhibition of plaque forming units, HSV-1; assay type: cell-based, Herpes simplex virus type 1; conditions: for intracellular antiviral activity: HSV-1, 10 μM; for Plaque Forming Units Mean ± SD: intracellular
[8] = test system: VSV; assay: microbe, parasite or virus in culture; assay type: cell-based, Vesicular stomatitis virus
[9] = test system: VSV; assay: microbe, parasite or virus in culture; assay type: cell-based, Vesicular stomatitis virus; remark: listed apart in the source
[10] = test system: HSV-1; assay: Extracellular activity, inhibition of plaque forming units, HSV-1; conditions: for extracellular antiviral activity: HSV-1, 10 μM; for Plaque Forming Units Mean ± SD: extracellular
[11] = test system: HSV; assay: Selectivity among the viruses tested; assay type: cell-based, Herpes simplex virus
[12] = test system: Poliovirus-2; assay: organism not typed; assay type: cell-based; remark: listed apart in the source
[13] = test system: HSV-2; assay: HSV-2 plaque size, intracellular treatment; assay type: cell-based, Herpes simplex virus type 2
Experimental: For antiviral studies the diameter of plaques is determined with the aid of a calibrated micrometer slide and a microscope eye piece having scaled markings. A simple random sample is taken and all plaque diameters are measured for both experimental and control groups. Plaque diameter also serves as an indication of inhibition of viral replication. […] Monolayers are then infected, washed with EBSS and | maintenance medium with or without compound added. Cells are stained afte | 48 hours with crystal violet and the plaque diameters are determined with | the aid of a micrometer.

[14] = listed as 3,4-dihydroxy-2H-1-benzopyran-2-one

## O=c1oc2ccccc2c(O)c1O [Compound 5, 3,4-dihydroxy-2H-1-benzopyran-2-one]
[1]; poliovirus-2, n=2
  intracellular antiviral activity: no antiviral activity
[1]; read-out: % Inhibition of Plaque Forming Units, Intracellularly
  inhibition at 10 µM: 2.1%
[2]; 24 h
  inhibition at 0.4 µM: 0%
  inhibition at 1.6 µM: 0%
  inhibition at 2.5 µM: 0%
  inhibition at 10 µM: 28.4 ± 7.6%
[2]; 48 h
  inhibition at 0.4 µM: 0%
  inhibition at 1.6 µM: 0%
  inhibition at 2.5 µM: 0%
  inhibition at 10 µM: 26.3 ± 6.3%
[2]; 72 h
  inhibition at 0.4 µM: 0%
  inhibition at 1.6 µM: 0%
  inhibition at 2.5 µM: 0%
  inhibition at 10 µM: 0%
[2]
  toxicity ([3H]-thymidine uptake and/or cell growth): no toxicity
[2]; [14]
  toxicity ([3H]-thymidine uptake and/or cell growth): non-toxic
[3]
  intracellular antiviral activity: shows both intra- and extra- cellular antiviral activity
[3]; [14]
  intracellular antiviral activity: exhibits both intracellular and extracellular activity
[3]; Human alphaherpesvirus 2, 10 μM, one experiment, n=3 wells, P<0.07, read-out: inhibition (PFU), virus-infected cells
  inhibition at 10 µM: 26 ± 4%
[3]; Human alphaherpesvirus 2, HSV-2, 10 μM (Table IV), read-out: % Inhibition of Plaque Forming Units, Intracellularly
  inhibition at 10 µM: 36 ± 4.7%
[3]; Human alphaherpesvirus 2, HSV-2, 10 μM, P<0.01, read-out: inhibition (PFU), intracellularly
  inhibition at 10 µM: 25 to 39%
[3]; Human alphaherpesvirus 2, HSV-2, 10.0 μmol/L, read-out: % Inhibition of PFU, IA (intracellular activity)
  inhibition at 10 µM: 36%
[3]; Human alphaherpesvirus 2, intracellular, HSV-2: 1 × Cmpd (10 μM), relative viral conc 10, read-out: % Inhibition
  inhibition at 10 µM: 33%
[3]; Human alphaherpesvirus 2, intracellular, HSV-2: 1 × Cmpd (10 μM), relative viral conc 100, read-out: % Inhibition
  inhibition at 10 µM: 39%
[3]; at noncytotoxic concentrations
  anti-HSV-2 properties: exhibited anti-HSV-2 properties at noncytotoxic concentrations
[3]; HSV-2: 1 × Cmpd (10 μM), relative viral conc 10
  Plaque Forming Units Mean ± SD: 14.3 ± 1.1
[3]; HSV-2: 1 × Cmpd (10 μM), relative viral conc 100
  Plaque Forming Units Mean ± SD: 153.6 ± 7.4
[4]; 24 h, 10.0 μmol/L
  inhibition at 24 h, 10 µM: 0%
[4]; 24 h, 50.0 μmol/L
  inhibition at 24 h, 50 µM: 5.9 ± 0.5%
[4]; 24 h, 100.0 μmol/L
  inhibition at 24 h, 100 µM: 47.8 ± 9%
[4]; 48 h, 10.0 μmol/L
  inhibition at 48 h, 10 µM: 0.4%
[4]; 48 h, 50.0 μmol/L
  inhibition at 48 h, 50 µM: 8.7 ± 2.8%
[4]; 48 h, 100.0 μmol/L
  inhibition at 48 h, 100 µM: 54.1 ± 3.2%
[5]
  extracellular antiviral activity: shows both intra- and extra- cellular antiviral activity
[5]; [14]
  extracellular antiviral activity: exhibits both intracellular and extracellular activity
[5]; Human alphaherpesvirus 2, extracellular, HSV-2 + 1 × Cmpd (10 μM), relative viral conc 10
  inhibition at 10 µM: 64%
[5]; Human alphaherpesvirus 2, extracellular, HSV-2 + 1 × Cmpd (10 μM), relative viral conc 100
  inhibition at 10 µM: 77%
[5]; Human alphaherpesvirus 2, extracellular, HSV-2 + 2 × Cmpd (20 μM), relative viral conc 10
  inhibition at 20 µM: 96%
[5]; Human alphaherpesvirus 2, extracellular, HSV-2 + 2 × Cmpd (20 μM), relative viral conc 100
  inhibition at 20 µM: 95%
[5]; Human alphaherpesvirus 2, read-out: % Inhibition of PFU, EA (extracellular activity), HSV-2, 10.0 μmol/L
  inhibition at 10 µM: 81%
[5]; Human alphaherpesvirus 2, read-out: % Inhibition of Plaque Forming Units, Extracellularly, HSV-2, 10 μM (Table IV)
  inhibition at 10 µM: 81 ± 4%
[5]; Human alphaherpesvirus 2, read-out: reduction (PFU), extracellularly, HSV-2, 10 μM level, P<0.01
  inhibition at 10 µM: 76 to 98%
[5]; comparison with clofibric acid, P<0.01
  inhibition, extracellular treatment of HSV-2: 63+/-4%
[5]; HSV-2 + 1 × Cmpd (10 μM), relative viral conc 10
  Plaque Forming Units Mean ± SD: 5.3 ± 1.5
[5]; HSV-2 + 1 × Cmpd (10 μM), relative viral conc 100
  Plaque Forming Units Mean ± SD: 49.3 ± 4.5
[5]; HSV-2 + 2 × Cmpd (20 μM), relative viral conc 10
  Plaque Forming Units Mean ± SD: 0.6 ± 0.6
[5]; HSV-2 + 2 × Cmpd (20 μM), relative viral conc 100
  Plaque Forming Units Mean ± SD: 9.7 ± 1.5
[6]; Human alphaherpesvirus 2, extracellularly, 10 μM, relative viral conc 1, read-out: % Inhib (mean plaque diameter)
  inhibition at 10 µM: 6%
[6]; Human alphaherpesvirus 2, extracellularly, 10 μM, relative viral conc 10, read-out: % Inhib (mean plaque diameter)
  inhibition at 10 µM: 1%
[6]; Human alphaherpesvirus 2, extracellularly, 20 μM, relative viral conc 10, read-out: % Inhib (mean plaque diameter)
  inhibition at 20 µM: 1%
[6]; 10 μM, relative viral conc 1
  Mean plaque diameter (±SD), Treated: 449 ± 70 micrometers
[6]; 10 μM, relative viral conc 10
  Mean plaque diameter (±SD), Treated: 500 ± 100 micrometers
[6]; 20 μM, relative viral conc 10
  Mean plaque diameter (±SD), Treated: 486 ± 80 micrometers
[6]; 10 μM
  reduction in plaque size: no significant reduction
[6]; 10 μM, listed as 3,4-dihydroxy-2H-1-benzopyran-2-one
  reduction in plaque size: no reduction in plaque size
[7]
  intracellular antiviral activity: shows both intra- and extra- cellular antiviral activity
[7]; [14]
  intracellular antiviral activity: exhibits both intracellular and extracellular activity
[7]; Human alphaherpesvirus 1, HSV-1, 10 μM, P<0.01, read-out: inhibition (PFU), intracellularly
  inhibition at 10 µM: 25 to 39%
[7]; Human alphaherpesvirus 1, HSV-1, 10 μM, read-out: % Inhibition of Plaque Forming Units, Intracellularly
  inhibition at 10 µM: 38.4 ± 5.7%
[7]; Human alphaherpesvirus 1, intracellular, HSV-1: 1 × Cmpd (10 μM), relative viral conc 10, read-out: % Inhibition
  inhibition at 10 µM: 25%
[7]; Human alphaherpesvirus 1, intracellular, HSV-1: 1 × Cmpd (10 μM), relative viral conc 100, read-out: % Inhibition
  inhibition at 10 µM: 38%
[7]; HSV-1: 1 × Cmpd (10 μM), relative viral conc 10
  Plaque Forming Units Mean ± SD: 11.0 ± 1.0
[7]; HSV-1: 1 × Cmpd (10 μM), relative viral conc 100
  Plaque Forming Units Mean ± SD: 106.6 ± 9.3
[8]; VSV, n=2
  intracellular antiviral activity: no antiviral activity
[8]; Vesicular stomatitis virus, read-out: % Inhibition of Plaque Forming Units, Intracellularly
  inhibition at 10 µM: 0%
[9]; VSV, n=2
  extracellular antiviral activity: no antiviral activity
[9]; Vesicular stomatitis virus, read-out: % Inhibition of Plaque Forming Units, Extracellularly
  inhibition at 10 µM: 0%
[10]
  extracellular antiviral activity: shows both intra- and extra- cellular antiviral activity
[10]; [14]
  extracellular antiviral activity: exhibits both intracellular and extracellular activity
[10]; Human alphaherpesvirus 1, extracellular, HSV-1 + 1 × Cmpd (10 μM), relative viral conc 10
  inhibition at 10 µM: 82%
[10]; Human alphaherpesvirus 1, extracellular, HSV-1 + 1 × Cmpd (10 μM), relative viral conc 100
  inhibition at 10 µM: 76%
[10]; Human alphaherpesvirus 1, extracellular, HSV-1 + 2 × Cmpd (20 μM), relative viral conc 10
  inhibition at 20 µM: 98%
[10]; Human alphaherpesvirus 1, extracellular, HSV-1 + 2 × Cmpd (20 μM), relative viral conc 100
  inhibition at 20 µM: 95%
[10]; Human alphaherpesvirus 1, read-out: % Inhibition of Plaque Forming Units, Extracellularly, HSV-1, 10 μM
  inhibition at 10 µM: 76.4 ± 2.2%
[10]; Human alphaherpesvirus 1, read-out: reduction (PFU), extracellularly, HSV-1, 10 μM level, P<0.01
  inhibition at 10 µM: 76 to 98%
[10]; HSV-1 + 1 × Cmpd (10 μM), relative viral conc 10
  Plaque Forming Units Mean ± SD: 2.6 ± 1.6
[10]; HSV-1 + 1 × Cmpd (10 μM), relative viral conc 100
  Plaque Forming Units Mean ± SD: 40.6 ± 3.8
[10]; HSV-1 + 2 × Cmpd (20 μM), relative viral conc 10
  Plaque Forming Units Mean ± SD: 0.3 ± 0.5
[10]; HSV-1 + 2 × Cmpd (20 μM), relative viral conc 100
  Plaque Forming Units Mean ± SD: 9.3 ± 1.5
[11]
  selectivity for HSV among the viruses tested: selective for HSV among the viruses tested
[12]; poliovirus-2, n=2
  extracellular antiviral activity: no antiviral activity
[12]; read-out: % Inhibition of Plaque Forming Units, Extracellularly
  inhibition at 10 µM: 2.7%
[13]; Human alphaherpesvirus 2, 48 h, viral-infected cells, 10 μM, read-out: reduction in plaque size
  inhibition at 10 µM: 56%
[13]; Human alphaherpesvirus 2, intracellularly, 10 μM, relative viral conc 10, read-out: % Inhib (mean plaque diameter)
  inhibition at 10 µM: 56%
[13]; Human alphaherpesvirus 2, intracellularly, 20 μM, relative viral conc 10, read-out: % Inhib (mean plaque diameter)
  inhibition at 20 µM: 60%
[13]; intracellularly, 10 μM, relative viral conc 1
  Mean plaque diameter (±SD), Treated: 213 ± 79 micrometers
[13]; intracellularly, 10 μM, relative viral conc 10
  Mean plaque diameter (±SD), Treated: 221 ± 89 micrometers
[13]; intracellularly, 20 μM, relative viral conc 1
  Mean plaque diameter (±SD), Treated: 205 ± 90 micrometers
[13]; intracellularly, 20 μM, relative viral conc 10
  Mean plaque diameter (±SD), Treated: 202 ± 88 micrometers
